In publication PMC9596378, “Discovery and molecular basis of subtype-selective cyclophilin inhibitors” (Nature Chemical Biology, 2022):
Where “and” joins values, the source holds several entries; their conditions need not be identical. Identical values can stand only once.

Tests used:
Experiment in all cases: Chymotrypsin coupled prolyl-isomerase assay
[1] = target: T1, PPWD1 (Homo sapiens, UniProt Q96BP3); type: biochemical; conditions: for PPWD1 prolyl-isomerase assay raw dose-response value: Fig. 3b source data, replicates
T1 construct: PPWD1 (UniProtKB Entry Q96BP3: residues 473–646); host or cells: E. coli BL21(DE3)
T1 sequence (Q96BP3 473-646): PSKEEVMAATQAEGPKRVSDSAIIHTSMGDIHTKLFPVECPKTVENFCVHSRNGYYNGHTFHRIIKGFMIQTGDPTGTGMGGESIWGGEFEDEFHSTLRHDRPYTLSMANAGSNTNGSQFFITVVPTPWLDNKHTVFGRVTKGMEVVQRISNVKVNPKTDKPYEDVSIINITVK

[2] = target: T2, NKTR (Homo sapiens, UniProt P30414); type: biochemical; conditions: for NKTR prolyl-isomerase assay raw dose-response value: Fig. 3b source data, replicates
T2 construct: NKTR (UniProtKB Entry P30414: residues 7–179); host or cells: E. coli BL21(DE3)
T2 sequence (P30414 7-179): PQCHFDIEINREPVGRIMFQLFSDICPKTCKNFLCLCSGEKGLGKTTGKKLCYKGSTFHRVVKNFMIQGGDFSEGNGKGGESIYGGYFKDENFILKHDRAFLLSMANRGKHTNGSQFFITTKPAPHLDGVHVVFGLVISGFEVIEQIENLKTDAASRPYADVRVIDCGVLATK

[3] = target: T3, CypD R124A (Homo sapiens, UniProt P30405, R124A); type: biochemical; conditions: mutant CypD R124A; read-out: Mutant Cyclophilin Prolyl Isomerase Inhibition IC50 Values, CypD R124A
T3 construct: made in house; host or cells: E. coli BL21(DE3)
In short: (§1)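 Cyclophilin (5 nM final) in 25 mM HEPES pH 7.3, 100 mM NaCl, 0.01% Triton X-100 was preincubated with compound (0.25% DMSO) 5 min at 2–3 °C, then with 25 µM α-chymotrypsin 5 min. Suc-AAPF-AMC (5 µM, in LiCl/trifluoroethanol) started the reaction; AMC fluorescence read every 1 s for 330 s.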

[4] = target: T4, CypD K118E (Homo sapiens, UniProt P30405, K118E); type: biochemical; conditions: prolyl-isomerase inhibition
T4 construct: made in house; host or cells: E. coli BL21(DE3)
In short: as §1

[5] = target: T5, CypD K118A (Homo sapiens, UniProt P30405, K118A); type: biochemical; conditions: prolyl-isomerase inhibition
T5 construct: made in house; host or cells: E. coli BL21(DE3)
In short: as §1

[6] = target: T6, CypD S123E (Homo sapiens, UniProt P30405, S123E); type: biochemical; conditions: prolyl-isomerase inhibition
T6 construct: made in house; host or cells: E. coli BL21(DE3)
In short: as §1

[7] = target: T7, CypD R124K (Homo sapiens, UniProt P30405, R124K); type: biochemical; conditions: mutant CypD R124K; read-out: Mutant Cyclophilin Prolyl Isomerase Inhibition IC50 Values, CypD R124K
T7 construct: made in house; host or cells: E. coli BL21(DE3)
In short: as §1

[8] = target: T8, CypA E81S/K82R (Homo sapiens, UniProt P62937, E81S/K82R); type: biochemical; conditions: mutant CypA E81S/K82R; read-out: Mutant Cyclophilin Prolyl Isomerase Inhibition IC50 Values, CypA E81S/K82R
T8 construct: Lane 12- SNA-CypA E81S/K82R (1-165);; His6 tag with TEV site (2BT vector); SNA remnant stays on the N-terminus (N, cleaved yes); made in house; host or cells: E. coli BL21(DE3)
In short: as §1

[9] = target: CypD (Homo sapiens, UniProt P30405); conditions: for CypD prolyl-isomerase assay raw dose-response value: Fig. 3b source data, replicates
[10] = target: Cyp40 (Homo sapiens, UniProt Q08752); conditions: for Cyp40 prolyl-isomerase assay raw dose-response value: Fig. 3b source data, replicates
In short: as §1

Chain of CypD (P30405 45-207): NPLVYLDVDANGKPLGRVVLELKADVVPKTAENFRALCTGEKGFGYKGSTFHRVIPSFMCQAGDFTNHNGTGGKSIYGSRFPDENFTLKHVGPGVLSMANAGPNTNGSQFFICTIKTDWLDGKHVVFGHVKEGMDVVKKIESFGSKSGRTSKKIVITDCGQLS
Chain of Cyp40 (Q08752 1-183): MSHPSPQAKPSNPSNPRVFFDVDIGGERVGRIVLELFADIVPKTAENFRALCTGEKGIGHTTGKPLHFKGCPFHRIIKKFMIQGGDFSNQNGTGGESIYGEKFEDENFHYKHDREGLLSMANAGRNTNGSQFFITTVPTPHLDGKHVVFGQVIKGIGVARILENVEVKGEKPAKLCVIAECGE
T7 sequence (P30405 45-207 R124K): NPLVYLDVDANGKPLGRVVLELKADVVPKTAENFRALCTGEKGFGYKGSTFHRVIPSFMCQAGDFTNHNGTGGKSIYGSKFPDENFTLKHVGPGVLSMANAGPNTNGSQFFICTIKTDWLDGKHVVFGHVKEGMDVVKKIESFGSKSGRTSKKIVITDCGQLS
T6 sequence (P30405 45-207 S123E): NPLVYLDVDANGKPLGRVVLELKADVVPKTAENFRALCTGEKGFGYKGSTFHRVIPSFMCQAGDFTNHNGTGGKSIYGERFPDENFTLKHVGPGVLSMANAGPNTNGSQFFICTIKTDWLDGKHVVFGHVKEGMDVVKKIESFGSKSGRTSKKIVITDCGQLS
T3 sequence (P30405 45-207 R124A): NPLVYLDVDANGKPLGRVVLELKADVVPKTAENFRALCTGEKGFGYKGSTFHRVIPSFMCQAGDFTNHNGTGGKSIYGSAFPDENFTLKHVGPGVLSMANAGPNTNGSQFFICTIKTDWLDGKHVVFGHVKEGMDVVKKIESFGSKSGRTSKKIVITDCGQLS
T4 sequence (P30405 45-207 K118E): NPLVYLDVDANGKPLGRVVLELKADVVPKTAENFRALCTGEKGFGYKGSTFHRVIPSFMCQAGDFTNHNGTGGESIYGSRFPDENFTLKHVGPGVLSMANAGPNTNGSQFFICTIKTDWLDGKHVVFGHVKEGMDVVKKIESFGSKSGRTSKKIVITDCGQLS
T5 sequence (P30405 45-207 K118A): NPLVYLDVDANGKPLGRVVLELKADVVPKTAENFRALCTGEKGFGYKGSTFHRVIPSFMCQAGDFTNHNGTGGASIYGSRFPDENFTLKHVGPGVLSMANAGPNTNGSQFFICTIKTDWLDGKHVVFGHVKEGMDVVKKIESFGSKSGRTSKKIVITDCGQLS
T8 sequence (P62937 whole entry E81S/K82R): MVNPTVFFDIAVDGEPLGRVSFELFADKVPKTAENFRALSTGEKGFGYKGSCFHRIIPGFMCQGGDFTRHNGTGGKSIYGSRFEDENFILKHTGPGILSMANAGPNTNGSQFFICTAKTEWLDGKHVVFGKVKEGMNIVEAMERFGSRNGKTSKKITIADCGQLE

Structure (SMILES): NCCOCCNC(=O)[C@@H]1CCNC(=O)/C=C/C(=O)N2CCC[C@](Cc3ccccc3)(C2)C(=O)N[C@@H](Cc2ccc(-c3ccc(CCC(=O)O)cc3)cc2)C(=O)NCc2ccccc2CC(=O)N1 [Compound B23]
- PPWD1 prolyl-isomerase assay raw dose-response value ([1]; Dose 0.0201875 µM): 0.05033 and 0.05427 and 0.05661
- PPWD1 prolyl-isomerase assay raw dose-response value ([1]; Dose 0.0605624 µM): 0.05286 and 0.05252 and 0.05358
- PPWD1 prolyl-isomerase assay raw dose-response value ([1]; Dose 0.181687 µM): 0.05234 and 0.04225 and 0.05023
- PPWD1 prolyl-isomerase assay raw dose-response value ([1]; Dose 0.545062 µM): 0.05186 and 0.04473 and 0.04345
- PPWD1 prolyl-isomerase assay raw dose-response value ([1]; Dose 1.63519 µM): 0.04986 and 0.04682 and 0.05314
- PPWD1 prolyl-isomerase assay raw dose-response value ([1]; Dose 4.90556 µM): 0.03903 and 0.03772 and 0.04075
- PPWD1 prolyl-isomerase assay raw dose-response value ([1]; Dose 14.7167 µM): 0.03486 and 0.03306 and 0.03245
- PPWD1 prolyl-isomerase assay raw dose-response value ([1]; Dose 44.15 µM): 0.02892 and 0.02371 and 0.02381
- IC50 ([1]; wild-type PPWD1, read-out: Wild-Type Cyclophilin Prolyl Isomerase Inhibition IC50 Values, PPWD1): 11000 nM
- NKTR prolyl-isomerase assay raw dose-response value ([2]; Dose 0.0201875 µM): 0.03059 and 0.03481 and 0.04051
- NKTR prolyl-isomerase assay raw dose-response value ([2]; Dose 0.0605624 µM): 0.03143 and 0.03531 and 0.03914
- NKTR prolyl-isomerase assay raw dose-response value ([2]; Dose 0.181687 µM): 0.02923 and 0.03481 and 0.03355
- NKTR prolyl-isomerase assay raw dose-response value ([2]; Dose 0.545062 µM): 0.03762 and 0.03481 and 0.03206
- NKTR prolyl-isomerase assay raw dose-response value ([2]; Dose 1.63519 µM): 0.03593 and 0.02854 and 0.03455
- NKTR prolyl-isomerase assay raw dose-response value ([2]; Dose 4.90556 µM): 0.0369 and 0.03251 and 0.03563
- NKTR prolyl-isomerase assay raw dose-response value ([2]; Dose 14.7167 µM): 0.03118 and 0.02949 and 0.02947
- NKTR prolyl-isomerase assay raw dose-response value ([2]; Dose 44.15 µM): 0.02842 and 0.02625 and 0.02899
- IC50 ([2]; wild-type NKTR, read-out: Wild-Type Cyclophilin Prolyl Isomerase Inhibition IC50 Values, NKTR): > 100000 nM
- IC50 [3]: 3 nM
- IC50 [4]: 180 nM
- IC50 [5]: 70 nM
- IC50 [6]: 23 nM
- IC50 [7]: 2.9 nM
- IC50 [8]: 23 nM
- IC50 [9]: 7.8 nM
- CypD prolyl-isomerase assay raw dose-response value ([9]; Dose 0.000457247 µM): 0.08239 and 0.08493 and 0.09684
- CypD prolyl-isomerase assay raw dose-response value ([9]; Dose 0.00137174 µM): 0.07973 and 0.07546 and 0.07833
- CypD prolyl-isomerase assay raw dose-response value ([9]; Dose 0.00411523 µM): 0.06213 and 0.06183 and 0.0629
- CypD prolyl-isomerase assay raw dose-response value ([9]; Dose 0.0123457 µM): 0.03857 and 0.03915 and 0.03469
- CypD prolyl-isomerase assay raw dose-response value ([9]; Dose 0.037037 µM): 0.02379 and 0.02491 and 0.0225
- CypD prolyl-isomerase assay raw dose-response value ([9]; Dose 0.111111 µM): 0.01572 and 0.01536 and 0.01393
- CypD prolyl-isomerase assay raw dose-response value ([9]; Dose 0.333333 µM): 0.01408 and 0.01283 and 0.01168
- CypD prolyl-isomerase assay raw dose-response value ([9]; Dose 1 µM): 0.01156 and 0.01128 and 0.01193
- selectivity for CypD over CypE and CypB ([9]; prolyl-isomerase IC50): ~ 3 fold
- Cyp40 prolyl-isomerase assay raw dose-response value ([10]; Dose 0.0201875 µM): 0.0705 and 0.08875 and 0.06706
- Cyp40 prolyl-isomerase assay raw dose-response value ([10]; Dose 0.0605624 µM): 0.06428 and 0.07232 and 0.08253
- Cyp40 prolyl-isomerase assay raw dose-response value ([10]; Dose 0.181687 µM): 0.08019 and 0.07121 and 0.08682
- Cyp40 prolyl-isomerase assay raw dose-response value ([10]; Dose 0.545062 µM): 0.05956 and 0.06358 and 0.0778
- Cyp40 prolyl-isomerase assay raw dose-response value ([10]; Dose 1.63519 µM): 0.04659 and 0.04863 and 0.05555
- Cyp40 prolyl-isomerase assay raw dose-response value ([10]; Dose 4.90556 µM): 0.02767 and 0.03026 and 0.03081
- Cyp40 prolyl-isomerase assay raw dose-response value ([10]; Dose 14.7167 µM): 0.0182 and 0.01915 and 0.02408
- Cyp40 prolyl-isomerase assay raw dose-response value ([10]; Dose 44.15 µM): 0.01601 and 0.01375 and 0.01814
- IC50 ([10]; Wild-Type Cyclophilin Prolyl Isomerase Inhibition IC50 Values, Cyp40, wild-type Cyp40): 1700 nM
